The source of these data is ChEMBL document CHEMBL3045360, “Natural toxins for use in pest management” (2010).

Holding throughout (type): functional
Assay [1] concerns Pomacea canaliculata. In words: Molluscicidal activity against Pomacea canaliculata assessed as mortality at 75 uM after 24 hr.
The subject of assay [2] is Pomacea canaliculata. Description: Molluscicidal activity against Pomacea canaliculata.
Assay [3] relates to Aedes aegypti. Description: Insecticidal activity against Aedes aegypti assessed as lethal compound dose per mosquito measured after 24 hr post topical application.
Assay [4] relates to Aedes aegypti. Description: Insecticidal activity against Aedes aegypti assessed as insect mortality at 2 ppm.
In assay [5] the test system is Pomacea canaliculata. Description: Molluscicidal activity against Pomacea canaliculata assessed as mortality at 200 uM after 24 hr.
Assay [6] has as its system Planorbella trivolvis. Description: Molluscicidal activity against Planorbella trivolvis.

Take `CC1=CC(=O)C2C3C1C2(C)CCCC3(C)C` (stereo unspecified) [VULGARONE B]: the mortality at 75 µM in assay [1] was 100%. The compound further displayed an LC50 in assay [2] of 30 µM.

In the case of `O=C(/C=C/C=C/c1ccc2c(c1)OCO2)N1CCCCC1` [PIPERINE], the LD50 in assay [3] amounted to 8.13 µg.

As for `C=CCCCCCCCCC(=O)N1CCCCC1CC` (stereo unspecified) [2-ethyl-1-undec-10-enoyl-piperidine], in assay [3], the LD50 came to 0.8 µg. As to `COC(=O)N(C(=O)N1CO[C@@]2(C(=O)OC)Cc3cc(Cl)ccc3C2=N1)c1ccc(OC(F)(F)F)cc1` [INDOXACARB], in assay [4], the mortality at 2 ppm stood at 40%.

For the compound `CC1OC(C)OC(C)OC(C)O1` (stereo unspecified) [METALDEHYDE], in assay [5], the mortality at 200 µM came to 100%. The same compound yielded a median lethal concentration (LC50) in assay [2] of 30 µM.

For the compound `C/C=C\C#CC#C/C=C\C(=O)OC` [(2Z,8Z)-MATRICARIA ACID METHYL ESTER], in assay [6], the LC50 amounted to 24 µM. For `CC(C)NC(=O)/C=C/C=C/CCCCCCc1ccc2c(c1)OCO2`, in assay [4], the mortality at 2 ppm was 80%.

In assay [6], `CC1(C)CC[C@]2(C(=O)O)CC[C@]3(C)C(=CC[C@@H]4[C@@]5(C)CC[C@H](O[C@@H]6O[C@H](CO)[C@@H](O)[C@H](O)[C@H]6O)[C@@](C)(CO)[C@@H]5CC[C@]43C)[C@@H]2C1` [Hederagenin-3-O-beta-D-glucopyranoside] came in with an LC50 of 30 µM. Turning to `O=C(/C=C/C=C/CCCCCCc1ccc2c(c1)OCO2)N1CCCCC1`, in assay [4], the mortality at 2 ppm came out at 20%.

By mortality is commonly meant the percentage killed. What is called LC50 is the concentration that kills 50% of the test population.
